This is an account of results in EP4640052A1 (BASF SE, priority 2024, dated 2025).

Assay [1] has as its system Pyricularia oryzae (PYRIOR). The assay is described as follows: microbe, parasite or virus in culture. It counts as cell-based.
Assay [2] deals with Septoria tritici (SEPTTR). Nature of the assay: microbe, parasite or virus in culture. Conditions: Zymoseptoria tritici, 168 h, read-out: Observed efficacy. It counts as cell-based.
Assay [3] relates to Alternaria solani (ALTESO). The assay is described as follows: microbe, parasite or virus in culture. Conditions: Alternaria solani, 168 h, read-out: Observed efficacy. It counts as cell-based.
In assay [4] the test system is Pyrenophora teres (PYRNTE), Qol resistant (F129L). Nature of the assay: microbe, parasite or virus in culture. The conditions noted are these: Pyrenophora teres, 168 h, read-out: Observed efficacy. The class given is cell-based.
Assay [5] deals with Sclerotinia sclerotiorum (SCLESC). The assay is described as follows: microbe, parasite or virus in culture. The class given is cell-based. Conditions: Sclerotinia sclerotiorum, 168 h, read-out: Observed efficacy.
Assay [6] concerns Puccinia triticina (syn. P. recondita). The assay is described as follows: Green house use example 9: curative control of brown rust on wheat (PUCCRT K4). The class given is in vivo.
The test system is the same in assay [7]. The assay is described as follows: Green house use example 10: preventative control of brown rust on wheat (PUCCRT P10). The class given is in vivo.
In assay [8] the test system is Phakopsora pachyrhizi. The assay is described as follows: Green house use example 13: curative control of soybean rust on soybeans (PHAKPA F129L K4). It counts as in vivo.
In assay [9] the test system is Blumeria graminis f. sp. tritici. Nature of the assay: Green house use example 11: control of powdery mildew on wheat, sprayed 2 days after inoculation (ERYSGT K2). It counts as in vivo. The conditions noted are these: G143A strain, single active.
The subject of a further assay is Monilinia sp. (MONISP). The assay is described as follows: microbe, parasite or virus in culture. It counts as cell-based. Conditions: Monilinia, 168 h, read-out: Observed efficacy.
The subject of assay [10] is Phakopsora pachyrhizi. The assay is described as follows: Green house use example 14: protective control of soybean rust on soybeans (PHAKPA F129L P2). The class given is in vivo. Conditions: single compound, 0.5 ppm.
Where [11] appears, read: Pyricularia oryzae, 168 h, read-out: Observed efficacy.
Setting [12] is: Trial 2, single compound, 1 ppm.
Setting [13] is: Trial 1, single compound, 1 ppm.
Setting [14] is: Trial 1, single compound, 4 ppm.
The mark [15] stands for this setting: Trial 3, single compound, 4 ppm.

As to `CO/C=C(/C(=O)OC)c1cccc(C)c1CO/N=C(\COC)c1ccc(F)cc1` [I.4, Methyl (E)-2-[2-[[(Z)-[1-(4-fluorophenyl)-2-methoxy-ethylidene]amino]oxymethyl]-3-methyl-phenyl]-3-methoxy-prop-2-enoate], the inhibition of growth at 0.016 ppm in [1] (setting [11]) is 28%; in assay [5], 0%. Moreover, the inhibition of growth at 0.063 ppm in [2] turned out to be 16%; in assay [3] it was 50%; in assay [4] it was 39%; in assay [5], 0%. The inhibition of growth at 0.25 ppm in [2] stood at 43%. Besides, the inhibition of growth at 1 ppm stood at 64% in assay [4] and 41% in assay [5]. In addition, the Observed efficacy in assay [6] (setting [12]) was determined as 49; in [7] (wheat, sprayed 10 days before inoculation, single active, 2 ppm) it was 12; in the assay with Phakopsora pachyrhizi [8] (Trial 1, single compound, 2 ppm), 36.
Regarding `CO/C=C(/C(=O)OC)c1cccc(C)c1CO/N=C(\COC)c1c(F)cc(F)cc1F` [I.10, Methyl (E)-3-methoxy-2-[2-[[(Z)-[2-methoxy-1-(2,4,6-trifluorophenyl)ethylidene]-amino]oxymethyl]-3-methyl-phenyl]prop-2-enoate], the inhibition of growth at 0.063 ppm came to 43% in assay [1] (setting [11]); 0% in assay [2]; 0% in assay [3]; 40% in [4]; 3% in [5]. Moreover, the figures for the inhibition of growth at 0.25 ppm in assay [2], in [3] and in [5] were 26%, 0% and 13%, respectively. Also, the inhibition of growth at 1 ppm was 55% in assay [2] and 65% in [4]. For the same molecule, the inhibition of growth at 0.016 ppm in [3] turned out to be 0%; in assay [4], 15%; in assay [5] it was 0%. Moreover, the Observed efficacy in [6] (setting [13]) stood at 3; in assay [6] (setting [14]) it was 14; in [9] (16 ppm) it was 7; in the assay on Phakopsora pachyrhizi [8] (setting [12]), 13; with Phakopsora pachyrhizi [8] (Trial 2, single compound, 4 ppm), 22; in the assay with Phakopsora pachyrhizi [8] (setting [15]) it was 32.
`CO/C=C(/C(=O)OC)c1cccc(Br)c1CO/N=C(\COC)c1c(F)cc(F)cc1F` [I.11, Methyl (E)-2-[3-bromo-2-[[(Z)-[2-methoxy-1-(2,4,6-trifluorophenyl)ethylidene]-amino]oxymethyl]phenyl]-3-methoxy-prop-2-enoate]: the inhibition of growth at 0.063 ppm in [1] (setting [11]) was 34%; in [2], 0%; in [3], 0%; in assay [4], 44%; in [5], 2%. Besides, the inhibition of growth at 0.25 ppm in assay [2] was 14%; in [3], 0%; in assay [4], 71%. For the same molecule, the inhibition of growth at 1 ppm in [2] amounted to 70%. In the assay on Monilinia sp. (MONISP), the inhibition of growth at 0.001 ppm was found to be 0%. Further, the inhibition of growth at 0.004 ppm in the assay on Monilinia sp. (MONISP) worked out at 17%. The inhibition of growth at 0.016 ppm in assay [4] came out at 6%. Moreover, the Observed efficacy in assay [6] (setting [13]) stood at 1; in [6] (setting [14]), 14; in assay [6] (setting [12]), 0; in assay [6] (Trial 2, single compound, 2 ppm) it was 0; in assay [9] (63 ppm), 14; with Phakopsora pachyrhizi [8] (setting [14]) it was 12. Besides, the Observed efficacy in the assay with Phakopsora pachyrhizi [8] (setting [15]) amounted to 12; in the assay with Phakopsora pachyrhizi [10], 59.
Consider `Cn1cc(C(=O)Nc2ccccc2-c2cc(F)c(F)c(F)c2)c(C(F)F)n1` [fluxapyroxad, reference compound], for which the Observed efficacy in assay [1] (single active, 1 ppm) is on record as 19%; in assay [6] (1 ppm), 20; in assay [6] (2 ppm), 67; in assay [7] (1 ppm), 42.
